In article PMC11766344, “HGS Promotes Tumor Growth, Whereas the Coiled-Coil Domain and Its Oligopeptide of HGS Suppress It” (International Journal of Molecular Sciences, 2025):
Entries after “also recorded” stand apart in the source; their conditions may differ.

Experiments:
COLO 205 cells = assay: In vitro anchorage-independent growth inhibition test, ULAS plate; format: cell-based, human; conditions: 2 × 10^3 cells/well, ULAS 96-well plate, Opti-MEM 5% FBS, 7 days, 37 °C, Cell Counting Kit-8 A450 nm
From the text: The effect of OP12-462 on anchorage-independent growth was examined; normal cells can proliferate in an anchorage-dependent manner but cannot in an anchorage-independent manner, whereas cancer cells can both proliferate in the anchorage-independent manner and form tumors. In normal (adhesion) plates, cancer cells adhere to the surface of plates and proliferate in the anchorage-dependent manner, so the anchorage-independent growth ability of the cancer cells cannot be observed. In ultra-low attachment surface (ULAS) plates, the cancer cells cannot adhere to the surface nor proliferate in the anchorage-dependent manner but can proliferate in the anchorage-independent manner. By measuring the proliferation ability of cancer cells on the ULAS plates, we can determine the anchorage-independent growth ability of the cells. […] Next, the effect of OP12-462 on tumor growth was examined. COLO 205 cells were inoculated subcutaneously into the back of BALB/cSlc-nu/nu nude mice. […]
After 7 days, 0.1 mL of Cell Counting Kit-8 solution (5-fold PBS diluted solution) was added, and the absorbance A450 nm was immediately measured and set as the T0 blank value. After incubating at 37 °C for 2 h, the absorbance A450 nm was measured again and set as T2. The absorbance difference between T2 and T0 was defined as the anchorage-independent or anchorage-dependent growth activity value.

MDCK normal cells = assay: Anchorage-dependent growth in normal adhesion plates, MDCK normal cells; format: cell-based, canine
From the text: (§1) The effect of OP12-462 on anchorage-independent growth was examined; normal cells can proliferate in an anchorage-dependent manner but cannot in an anchorage-independent manner, whereas cancer cells can both proliferate in the anchorage-independent manner and form tumors. In normal (adhesion) plates, cancer cells adhere to the surface of plates and proliferate in the anchorage-dependent manner, so the anchorage-independent growth ability of the cancer cells cannot be observed. In ultra-low attachment surface (ULAS) plates, the cancer cells cannot adhere to the surface nor proliferate in the anchorage-dependent manner but can proliferate in the anchorage-independent manner. By measuring the proliferation ability of cancer cells on the ULAS plates, we can determine the anchorage-independent growth ability of the cells. […] Next, the effect of OP12-462 on tumor growth was examined. COLO 205 cells were inoculated subcutaneously into the back of BALB/cSlc-nu/nu nude mice. The day when the tumor volume exceeded 250 mm^3 was set as day 0, and OP12-462 (50 mg/kg body weight) in 0.2 mL of PBS solution or vehicle (PBS) was administered once a day into the tail vein for 10 days from day 0 to day 9.

COLO205 cells = assay: Oligopeptide tumor growth inhibition test, subcutaneous COLO205 tumors in nude mice; format: in vivo, nude mice (BALB/cSlc-nu/nu)
From the text: The effect of OP12-462 on anchorage-independent growth was examined; normal cells can proliferate in an anchorage-dependent manner but cannot in an anchorage-independent manner, whereas cancer cells can both proliferate in the anchorage-independent manner and form tumors. In normal (adhesion) plates, cancer cells adhere to the surface of plates and proliferate in the anchorage-dependent manner, so the anchorage-independent growth ability of the cancer cells cannot be observed. In ultra-low attachment surface (ULAS) plates, the cancer cells cannot adhere to the surface nor proliferate in the anchorage-dependent manner but can proliferate in the anchorage-independent manner. By measuring the proliferation ability of cancer cells on the ULAS plates, we can determine the anchorage-independent growth ability of the cells. […]
After a 2-week acclimation period, 8-week-old female C57BL/6 or nude mice were randomly divided into groups. […] Tumor formation was monitored for 4 or 5 weeks after the inoculation by measuring the width (W) and length (L) of the tumors with W < L. The tumor volume was calculated according to the formula (W2 × L × π/6).
The cells were resuspended at a cell density of 1 × 10^6 cells in 100 µL of PBS and were inoculated subcutaneously into the flank region of 8-week-old female nude mice. […] Tumor sizes were measured daily.

[1] = Body weight and acute toxicity in tumor-bearing nude mice given OP12-462; format: in vivo, nude mice (BALB/cSlc-nu/nu)
From the text: as §1
The cells were resuspended at a cell density of 1 × 10^6 cells in 100 µL of PBS and were inoculated subcutaneously into the flank region of 8-week-old female nude mice. The day when the tumor volume exceeded 250 mm^3 was set as Day 0, and oligopeptide OP12-462 (50 mg/kg body weight) was administered as a 0.2 mL PBS solution in the tail vein once daily for 10 days from Day 0 to Day 9. Tumor sizes were measured daily.

normal or cancer cells = assay: Acute toxicity to cells in vitro; format: cell-based
From the text: HGS/C and oligopeptides constituting HGS/C, including OP12-462, might be new tumor growth inhibitors that suppress tumor growth by inhibiting the anchorage-independent growth ability of cancer cells rather than directly destroying cancer cells. […] HGS/C and the OP12-462 are novel inhibitors of TGF-β-SMAD and Wnt-β-catenin signal transduction. They not only have a novel tumor growth suppression effect but also have the potential to become novel medicines for diseases, including various fibrosis diseases, whose symptoms worsen owing to the enhancement of these signal transduction pathways. Potential drug targets of EMT in metastasis are now in development. HGS and HGS/C are an inducer and an inhibitor of EMT and tumorigenesis. Therefore, HGS and HGS/C could be good targets of EMT-blocking drugs for clinical application.

ERRLYYEGLQDK [OP12-462, oligopeptide of 12 amino acid residues (…) constituting the coiled-coil domain of HGS]
Anchorage-independent growth activity (COLO 205 cells): inhibited the anchorage-independent growth activity of COLO 205 cells (Figure 5b) in a concentration-dependent manner
Anchorage-dependent growth of MDCK normal cells (MDCK normal cells): did not inhibit
Tumor growth (tumor volume) versus vehicle (COLO205 cells; 50 mg/kg body weight in 0.2 mL PBS, tail vein, once daily for 10 days (day 0 to day 9), day 0 = tumor volume exceeded 250 mm^3, nude mice, n = 5): statistically significant from the third day onwards; also recorded: significantly suppressed the growth of the tumor
Duration of tumor growth suppression after end of administration (COLO205 cells; 50 mg/kg tail vein once daily day 0 to day 9, nude mice with COLO205 tumors): for more than two weeks after the administration had ended
Average body weight / weight loss ([1]; 50 mg/kg tail vein for 10 consecutive days): no change in the average body weight; also recorded: did not result in weight loss
Acute toxicity due to administration ([1]; 50 mg/kg tail vein once daily for 10 days): No acute toxicity
Changes in body weight of each mouse ([1]; ten days after administration, 50 mg/kg tail vein once daily for 10 days): −0.4% to +2
Acute toxicity to normal or cancer cells in vitro (normal or cancer cells): no acute toxicity
